According to publication PMC11053168, “Agonist-selective activation of individual G-proteins by muscarinic receptors” (Scientific Reports, 2024):

Target: T1, M2 receptor (Homo sapiens, UniProt P08172)
T1 sequence (P08172 1-466): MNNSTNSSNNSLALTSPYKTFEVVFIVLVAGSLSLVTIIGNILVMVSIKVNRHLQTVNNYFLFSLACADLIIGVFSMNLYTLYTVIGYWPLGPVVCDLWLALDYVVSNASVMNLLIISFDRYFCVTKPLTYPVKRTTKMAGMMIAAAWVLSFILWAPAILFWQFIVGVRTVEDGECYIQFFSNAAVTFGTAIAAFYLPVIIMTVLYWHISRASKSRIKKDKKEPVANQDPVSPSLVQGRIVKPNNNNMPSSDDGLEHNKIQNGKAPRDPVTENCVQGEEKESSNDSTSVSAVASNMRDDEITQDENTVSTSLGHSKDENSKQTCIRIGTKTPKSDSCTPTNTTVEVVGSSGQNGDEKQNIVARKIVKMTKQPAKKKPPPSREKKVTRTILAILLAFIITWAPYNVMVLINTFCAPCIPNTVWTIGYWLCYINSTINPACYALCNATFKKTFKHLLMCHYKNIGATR
Assay: Agonist-stimulated GTPγ[35S] binding to Sf9 membranes expressing M2 receptor and individual Gαi/o
Type: biochemical
Design: host or cells: Sf9 insect cells, baculovirus (pFastBac1 / Bac-to-Bac); membranes
Details: for Activation of individual Gi/o Gα types: M2 with GαoA, GαoB, Gαi1, Gαi2, Gαi3; for Operational efficacy lower than the efficacy of CBC: at GαoA and GαoB; for Signalling bias among Gαi/o relative to CBC: RAi / bias factor, CBC reference
Procedure: Baculoviral stocks for expression of M2 receptor and individual Gα-subunits of Gi/o G-proteins (GαoA, GαoB, Gαi1, Gαi2, Gαi3) in SF9 cells were generated according to Bac-to-Bac® baculovirus expression system—user guide (https://assets.thermofisher.com/TFS-Assets/LSG/manuals/MAN0000414_BactoBacExpressionSystem_UG.pdf). […] After 96 h at 27 °C, baculoviral viral particles released into the medium were harvested. After centrifugation at 500×g for 10 min to remove detached cells and cell debris, baculoviral stock P0 was ready for amplification. Suspension of Sf9 cells at density 2 × 10^6 cells per ml was infected by baculoviral stock P0 in ratio 1:1000 and after 72 h of growth (in a shaking incubator at 135 rpm and 27 °C) the amplified baculoviral stock P1 was harvested. The cell suspension was centrifugated at 500×g for 10 min to remove cells and cell debris and the supernatant containing a high level of baculoviral particles P1 was collected. FBS to the concentration of 0.5% was added and the stock was stored at 4 °C, protected from light for up to 6 months. For the quantification of baculoviral particles, a plaque assay was used.
Cells were grown in suspension culture in 250 ml Erlenmeyer flasks in Sf-900™ III serum-free medium in an aerated shaking incubator at 27 °C and 135 rpm. Cells were maintained at the density of 1–4 × 10^6 cells per ml. Sf9 cells at the density 2 × 10^6 were co-infected with baculoviral stock for the M2 receptor and a particular Gi/o Gα in the ratio (1:10). […] Infected cells were harvested by centrifugation 1000×g for 10 min. Cell pellets were kept at − 80 °C.
Membranes were prepared as described previously by Randakova et al.[33]. Cells harvested from twenty 100 mm petri dishes (CHO) or 30 ml of cell suspension (Sf9) were suspended in 20 ml of ice-cold incubation medium (100 mM NaCl, 20 mM Na-HEPES, 10 mM MgCl2, pH 7.4) supplemented with 10 mM EDTA and homogenized on ice by two 30‐s strokes using a Polytron homogenizer (Ultra-Turrax; Janke & Kunkel GmbH & Co. KG, IKA-Labortechnik, Staufen, Germany) with a 30 s pause between strokes. Cell homogenates were centrifuged for 5 min at 1000×g to remove whole cells and cell nuclei. The resulting supernatants were centrifuged for 30 min at 30,000×g. Pellets were suspended in a fresh incubation medium, incubated on ice for 30 min, and centrifuged again. The resulting membrane pellets were kept at − 80 °C until assayed within 10 weeks.
Agonist stimulated GTPγ[^35S]binding to membranes from Sf9 cells expressing the M2 receptors in a combination with α-subunit of given Gi/o type (GαoA, GαoB, Gαi1, Gαi2, Gαi3) was measured in 96-well plates in a final volume of 200 µl of incubation medium described above containing 500 pM of GTPγ[^35S] […] Nonspecific binding was determined in the presence of 1 µM nonlabelled GTPγS. Incubations were terminated and processed as described above. Parameters of functional response were calculated according to Eq. (3) after subtraction of non-specific binding.
The basal value of GTPγ[^35S] binding was determined in the absence of the agonist. After subtraction of non-specific binding determined in the presence of 10 μM nonlabelled GTPγS, GTPγ[^35S]binding was divided by the basal value and expressed as folds over basal. […] Then Eq. (3) was fitted to the data using GraphPad. Obtained EMAX and EC50 values were used to calculate RAi values using Eq. (7). To determine τ and KA of the functional responses system EMAX was determined as described earlier. Basal values were subtracted and functional responses were expressed as fractions of system EMAX. […] Obtained τ and KA values were used to calculate the bias factor according to Eq. (8), see below, for each experiment.
Equation (4) was fitted to data by the two-step procedure described earlier[61]

Row | Compound | GTPγ[35S] binding signal at Gi1 as % of GoA (M2 + Gi1 vs M2 + GoA) [%] | Activation of individual Gi/o Gα types | Operational efficacy lower than the efficacy of CBC | Signalling bias among Gαi/o relative to CBC (M2) | Bias GoA vs GoB (M2, relative to carbachol) | GTPγ[35S] binding signal (M2 + Gi1) | GTPγ[35S] binding signal relative to the detection limit (M2 + GoA)
1 | C[N+](C)(C)CCOC(N)=O [CBC, carbachol, reference compound] | 62 | activated all Gi/o types |  |  |  |  | 
2 | c1csc(C[N+]23CCC(CC2)CC3)c1 [JB-8A] |  | activated GαoA and GαoB only | 20–30 × |  |  |  | 
3 | C[N+]1(Cc2cccs2)CCOCC1 [JB-12-2] |  | activated all Gi/o Gα |  | biased to GαoA | more than 5 fold |  | 
4 | COC(=O)C1=CCCN(Cc2cccs2)C1 [JB-13-1] |  | activated all Gi/o Gα |  | biased to Gαi3 |  |  | 
5 | C[N+]1(Cc2cccs2)CC=CCC1 (centres unmarked) [JR-6, 1-methyl-1-[(thiophen-2-yl)methyl]-1,2,3,6-tetra hydropyridin-1-ium] |  | activated GαoA and GαoB only | approx 10 × | absolute selectivity to Gαo with a preference for GαoB |  | no signal | more than 20 fold
6 | C[N+]1(Cc2ccc(Cl)s2)CC=CCC1 (centres unmarked) [PN-152, 1-[(5-chlorothiophen-2-yl)methyl]-1-methyl-1,2,3,6-tetrahydropyridin-1-ium] |  | activated GαoA and GαoB only | ~15 × | absolute selectivity to Gαo with a preference for GαoB |  |  | 
